Active and inactive are the calls of the source. No rule for the calls is given here.

The target of one experiment is Prostaglandin E2 receptor EP2 subtype (Homo sapiens) (UniProt P43116). Description: compounds shifting PGE2 potency at EP2 – cell-based, human EP2, PGE2 EC50 shift, dose response (AID 1421). The conditions noted are these: EP2-expressing cells, PGE2 EC50 shift by compound.
Sequence of Prostaglandin E2 receptor EP2 subtype (Homo sapiens) (P43116 whole entry, looked up): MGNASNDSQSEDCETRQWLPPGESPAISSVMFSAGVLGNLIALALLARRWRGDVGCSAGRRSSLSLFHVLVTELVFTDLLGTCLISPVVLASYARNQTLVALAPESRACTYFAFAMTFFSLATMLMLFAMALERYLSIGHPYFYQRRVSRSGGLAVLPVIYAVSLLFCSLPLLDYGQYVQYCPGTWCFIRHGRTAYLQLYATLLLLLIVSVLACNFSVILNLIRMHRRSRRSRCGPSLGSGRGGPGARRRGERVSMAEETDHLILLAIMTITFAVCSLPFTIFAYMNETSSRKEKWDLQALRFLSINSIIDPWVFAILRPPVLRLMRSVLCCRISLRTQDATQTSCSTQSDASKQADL
As to `CCSc1nc2sc3c(c2c(=O)n1CC)CC(C)(C)OC3`, the outcome was active.

On to `COc1ccc(-c2cc(C(F)(F)F)nc(N3CCOCC3)n2)cc1OC`, for which the outcome was active.

`CC12CCC(C(=O)N(CSC(=S)N/N=C\c3ccccc3Cl)C1=O)C2(C)C` (stereo unspecified): the result was active.

On to `FC(F)(F)c1cc(-c2ccccc2)nc2nc(N3CCOCC3)sc12`, for which the outcome was active.

As to `Cc1cc(C#N)c(SCC(N)=O)nc1-c1ccc(F)cc1`, the outcome was active.

Consider `COc1ncnc2c1oc1nc(CC(C)C)c3c(c12)CCCC3`, for which the outcome was active.

For `Cc1ccccc1CN(C)CC(=O)Nc1ccccc1Oc1ccccc1`, the outcome was active.

The experiment is the same for the next values; noted with them: EP2-expressing cells, PGE2 EC50 shift by compound; measured here: PGE2 EC50 at 6.7 uM compound.
Regarding `CCSc1nc2sc3c(c2c(=O)n1CC)CC(C)(C)OC3`, the PGE2 EC50 with compound was found to be 0.96 nM.

Regarding `COc1ccc(S(=O)(=O)N(Cc2cccs2)C2CCCC2)cc1`, the PGE2 EC50 with compound is 1.26 nM.

For `C(=N\N1CCN(C2c3ccccc3-c3ccccc32)CC1)/c1cccnc1`, the PGE2 EC50 with compound amounted to 1.54 nM.

For `Cc1ccc(Nc2cc(C)nc3c(C)ccc([N+](=O)[O-])c23)cc1`, the PGE2 EC50 with compound was determined as 0.73 nM.

For `Fc1ccc(Sc2nc(-c3ccccc3)nnc2C(F)(F)F)cc1`, the PGE2 EC50 with compound amounted to 0.94 nM.

Consider `CSc1nnc2c3ccccc3c3ccccc3c2n1`, for which the PGE2 EC50 with compound was determined as 1 nM.

With `CN(C)c1nc(-c2ccccc2)c2cnn(Cc3ccccc3)c2n1`, the PGE2 EC50 with compound amounted to 1.12 nM.

With `Cc1cccc(/N=C/c2c(O)ccc3oc4c(c23)CCCC4)n1`, the PGE2 EC50 with compound was found to be 1.04 nM.

In the case of `CCOC(=O)c1sc(NC(=O)CN2C(=O)c3cccc4cccc(c34)C2=O)nc1C`, the PGE2 EC50 with compound turned out to be 1.37 nM.

Regarding `CSc1nc(Sc2ccccc2)c2ccccc2n1`, the PGE2 EC50 with compound was 1.6 nM.

Turning to `COc1ccc(C(=O)NCC(=O)n2nc(C)cc2C)cc1OC`, the PGE2 EC50 with compound was found to be 1.6 nM.

`CO/N=C/C(=N\Nc1ccccc1)C(=O)c1ccccc1`: the PGE2 EC50 with compound is 0.59 nM.

With `COc1ccc(C)cc1NC(=O)C1CC(=O)OC12CCCCC2` (stereo unspecified), the PGE2 EC50 with compound was determined as 0.67 nM.

As to `O=C(Nc1ccccc1Br)c1ccccc1-c1ccccc1`, the PGE2 EC50 with compound turned out to be 2.5 nM.

With `C/C(CCc1oc2ccccc2c1-c1ccc(C)o1)=N/O`, the PGE2 EC50 with compound turned out to be 0.95 nM.

In the case of `COc1ccc(-c2cc(C(F)(F)F)nc(N3CCOCC3)n2)cc1OC`, the PGE2 EC50 with compound is 1.53 nM.

Turning to `CCOP(=O)(OCC)c1nc(-c2ccc(F)cc2)oc1NCc1ccccc1`, the PGE2 EC50 with compound came out at 1.09 nM.

Take `CC1(C)Cc2ccccc2-c2nc3n(c(=O)c21)CCS3`: the PGE2 EC50 with compound was 0.79 nM.

Consider `N/C(CSc1nc(-c2ccccc2)c(-c2ccccc2)o1)=N\O`, for which the PGE2 EC50 with compound is 1.14 nM.

Regarding `Cc1ccc(N(CC(=O)N/N=C/c2ccc(OC3CSC3)cc2)S(=O)(=O)c2ccccc2)cc1`, the PGE2 EC50 with compound is 1.01 nM.

Take `Cc1nc(N2N=C(c3ccc(Cl)cc3)CC2c2ccco2)sc1C(=O)N(C)C` (stereo unspecified): the PGE2 EC50 with compound turned out to be 2.73 nM.

As to `Cc1nc2c3cc(F)ccc3n(Cc3ccccc3)c2s1`, the PGE2 EC50 with compound amounted to 0.57 nM.

`O=C(CN1CCN(Cc2ccccc2)CC1)Nc1ccccc1-c1ccccc1`: the PGE2 EC50 with compound turned out to be 2.97 nM.

On to `CCOC(=O)c1c(NC(=O)COC(=O)Cn2cnc3ccccc32)sc2c1CCC(C)C2` (stereo unspecified), for which the PGE2 EC50 with compound was found to be 0.79 nM.

Turning to `COC(=O)c1cc(-c2ccc3c(c2)OCO3)nc2ccccc12`, the PGE2 EC50 with compound is 0.7 nM.

As for `Nn1cnc2c(c1=O)C1(CCCCC1)Cc1ccccc1-2`, the PGE2 EC50 with compound was 0.81 nM.

`CCOc1ccccc1-c1nc2c(C(C)(C)C)nn(C)c2c(=O)[nH]1`: the PGE2 EC50 with compound is 1.51 nM.

In the case of `Cc1ccc(-n2cc(-c3ccccc3)c3c(N4CCOCC4)ncnc32)cc1`, the PGE2 EC50 with compound was found to be 1.99 nM.

Take `CCC(c1nnnn1Cc1ccco1)N(Cc1cc2cc(C)cc(C)c2[nH]c1=O)CC1CCCO1` (stereo unspecified): the PGE2 EC50 with compound is 1.56 nM.

`Cc1cccc2cc(CN(Cc3cccs3)C3(c4nnnn4C4CCCC4)CCCC3)c(=O)[nH]c12`: the PGE2 EC50 with compound was 1.08 nM.

Consider `CC12CCC(C(=O)N(CSC(=S)N/N=C\c3ccccc3Cl)C1=O)C2(C)C` (stereo unspecified), for which the PGE2 EC50 with compound turned out to be 1.7 nM.

As to `CCOC(=O)c1c(NC(=O)c2cccnc2)sc(C)c1C`, the PGE2 EC50 with compound worked out at 1.25 nM.

For the compound `Cc1ccc2c3c(cccc13)-c1ccccc1C2=O`, the PGE2 EC50 with compound was determined as 0.86 nM.

`O=C(/C(=C/O)N=Nc1ccccc1Cl)c1ccccc1`: the PGE2 EC50 with compound worked out at 2.68 nM.

On to `Cc1ccc(-c2csc(Nc3ccc(C(=O)O)cc3)[n+]2Cc2ccccc2)cc1`, for which the PGE2 EC50 with compound is 0.77 nM.

Turning to `O=C(O)COc1ccc2occ(C(=O)c3ccccc3)c2c1`, the PGE2 EC50 with compound is 0.86 nM.

Turning to `CCOc1ccc(OCC)c(NC(=O)CN2CCN(c3ccc(C)cc3C)CC2)c1`, the PGE2 EC50 with compound came out at 0.88 nM.

With `FC(F)(F)c1cc(-c2ccccc2)nc2nc(N3CCOCC3)sc12`, the PGE2 EC50 with compound was 1.68 nM.

For the compound `Cc1ccc(S(=O)(=O)c2ccc(Oc3cccc(C)c3)cc2)cc1`, the PGE2 EC50 with compound came to 1.41 nM.

Turning to `CSc1nnc(-c2cc3c(s2)-c2ccccc2CC3)o1`, the PGE2 EC50 with compound came out at 1.15 nM.

For `COc1ccccc1C(=O)NC(=S)Nc1cc(C(=O)O)ccc1C`, the PGE2 EC50 with compound came to 1.18 nM.

In the case of `O=C(c1ccccc1)C1CN(Cc2ccccc2)CCC1(O)c1ccccc1` (stereo unspecified), the PGE2 EC50 with compound was found to be 2.61 nM.

Regarding `CCOC(=O)c1cnc2ccc(OCC)cc2c1N(C)Cc1ccccc1`, the PGE2 EC50 with compound is 2.48 nM.

As to `Cc1cc(C)nc(SCc2nnc(SCC#N)n2-c2cccc(Cl)c2)n1`, the PGE2 EC50 with compound is 2.76 nM.

As to `Cc1cc(C#N)c(SCC(N)=O)nc1-c1ccc(F)cc1`, the PGE2 EC50 with compound amounted to 1.4 nM.

`CC(=O)C1CC[C@H]2C3CC[C@H]4C[C@H](O)CC[C@]4(C)C3CC[C@]12C` (stereo partly specified): the PGE2 EC50 with compound came to 0.89 nM.

As to `COC(=O)c1cc2occc2n1Cc1cccc(C)c1`, the PGE2 EC50 with compound was 0.79 nM.

For `COc1ncnc2c1oc1nc(CC(C)C)c3c(c12)CCCC3`, the PGE2 EC50 with compound was found to be 0.91 nM.

Turning to `CN(/N=C\c1ccc(O)c(O)c1)c1nc(-c2ccccc2)cc(-c2ccccc2)n1`, the PGE2 EC50 with compound is 1.22 nM.

Take `Cc1ccc(Nc2nc(CSc3nnc(-c4ccccc4C)n3C)cs2)cc1`: the PGE2 EC50 with compound was found to be 1.35 nM.

`O=c1c2c(n3nnnc3n1-c1ccccc1)-c1ccccc1CC21CCCC1`: the PGE2 EC50 with compound was 1.01 nM.

Turning to `Cc1ccccc1CN(C)CC(=O)Nc1ccccc1Oc1ccccc1`, the PGE2 EC50 with compound is 1.12 nM.

Take `CCCCc1nc(SCCOC)c2c(=O)n(C)c(=O)n(C)c2n1`: the PGE2 EC50 with compound worked out at 1.42 nM.

`CC(=O)O[C@H]1C[C@@H](OC(C)=O)C(C)(C)C2C[C@@H](OC(C)=O)[C@]3(C)C([C@H](OC(C)=O)C[C@@]4(C)[C@H](c5ccoc5)OC(=O)[C@H]5O[C@]543)[C@]21C` (stereo partly specified): the PGE2 EC50 with compound came to 1.05 nM.

On to `CC(=O)N1c2ccccc2C(C)(c2ccccc2)CC1(C)C` (stereo unspecified), for which the PGE2 EC50 with compound was found to be 2.45 nM.

For the compound `Cc1ccccc1NC(=O)CSc1nc(COc2ccccc2)nc2ccccc12`, the PGE2 EC50 with compound came out at 1.24 nM.

Take `CCOP(=O)(OCC)c1nc(-c2cccc3ccccc23)oc1NCCc1ccc(OC)cc1`: the PGE2 EC50 with compound amounted to 0.96 nM.

As to `Cc1ccc2nc(-c3ccccn3)c(Nc3ccccc3C)n2c1`, the PGE2 EC50 with compound worked out at 0.79 nM.

Turning to `CC1CCN(c2ccccc2NC(=O)c2ccc(F)cc2)CC1`, the PGE2 EC50 with compound was 0.69 nM.

`CC1=CC2C(CC1=O)C(C)=CCC2C(C)C` (stereo unspecified): the PGE2 EC50 with compound stood at 0.86 nM.

For `CN(C)c1nc(N2CCOCC2)nc(N(c2ccccc2)c2ccccc2)n1`, the PGE2 EC50 with compound stood at 0.61 nM.

Take `Cc1scc(-c2n[nH]c(=S)n2Cc2ccccc2)c1C`: the PGE2 EC50 with compound amounted to 2.55 nM.

`COC(=O)C(C)Sc1ncnc2c1nnn2-c1ccc(F)cc1` (stereo unspecified): the PGE2 EC50 with compound is 1.11 nM.

As for `Cc1cccc(C)c1NC(=O)CSc1nnc(Cn2nnc(-c3ccccc3)n2)n1-c1ccccc1`, the PGE2 EC50 with compound came out at 0.65 nM.

Values taken from PubChem BioAssay AID1421 (Emory University Molecular Libraries Screening Center, 2008).
